Results from DBAASP.
≈ marks a conversion by molar mass, not a printed value.

Key:
Test in all cases: ≥ marks a high value that may be exact or a test limit, other limits are often not marked, values filed in µg/mL are converted to µM
[1] = test system: Cryptococcus neoformans ATCC 208821
Pseudomonas aeruginosa = test system: Pseudomonas aeruginosa
[2] = test system: Pseudomonas aeruginosa ATCC 27853
[3] = test system: Klebsiella pneumoniae ATCC BAA-2146
Acinetobacter baumannii = test system: Acinetobacter baumannii
[4] = test system: Bacillus subtilis ATCC 6051
[5] = test system: Staphylococcus aureus ATCC 43300
[6] = test system: Acinetobacter baumannii ATCC 19606
[7] = test system: Candida albicans ATCC 90028
[8] = test system: Klebsiella pneumoniae ATCC 700603
[9] = test system: Klebsiella pneumoniae ATCC 13883
[10] = test system: Escherichia coli ATCC 25922
Klebsiella pneumoniae = test system: Klebsiella pneumoniae
Staphylococcus aureus MR = test system: Staphylococcus aureus MR
[11] = test system: Staphylococcus epidermidis KCTC 1917
Enterococcus faecium VR = test system: Enterococcus faecium VR
[12] = test system: Staphylococcus aureus KCTC 1621
[13] = test system: Bacillus subtilis KCTC 3068
[14] = test system: Pseudomonas aeruginosa KCTC 1637
Enterococcus faecalis VR = test system: Enterococcus faecalis VR
Enterococcus faecalis = test system: Enterococcus faecalis
Enterococcus faecium = test system: Enterococcus faecium
[15] = test system: Salmonella typhimurium KCTC 1926
[16] = test system: Escherichia coli KCTC 1682
[17] = test system: Pseudomonas aeruginosa H1027
Pseudomonas aeruginosa 9 = test system: Pseudomonas aeruginosa 9
[18] = test system: Stenotrophomonas maltophilia ATCC 13637
[19] = test system: Staphylococcus aureus C623
[20] = test system: Klebsiella pneumoniae ESBL 61962
[21] = test system: Escherichia coli ESBL 64771
[22] = test system: Enterobacter cloacae 218R
[23] = test system: Pseudomonas aeruginosa H1030
[24] = test system: Klebsiella pneumoniae ESBL 63575
[25] = test system: Enterococcus faecium t62764
[26] = test system: Pseudomonas aeruginosa 198
[27] = test system: Pseudomonas aeruginosa LES400
[28] = test system: Staphylococcus aureus ATCC 25923
[29] = test system: Enterococcus faecalis ATCC 29212
[30] = test system: Pseudomonas aeruginosa PAO1 H103
[31] = test system: Enterococcus faecalis W61950
[32] = test system: Enterococcus faecalis f43559
[33] = test system: Pseudomonas aeruginosa 213
[34] = test system: Escherichia coli ESBL 63103
[35] = test system: Enterococcus faecium mic80

Row | Structure (SMILES) | MIC [1] [µM] | MIC (Pseudomonas aeruginosa) [µM] | MIC [2] [µM] | MIC [3] [µM] | MIC (Acinetobacter baumannii) [µM] | MIC [4] [µM] | MIC [5] [µM] | MIC [6] [µM] | MIC [7] [µM] | MIC [8] [µM] | MIC [9] [µM] | MIC [10] [µM] | MIC (Klebsiella pneumoniae) [µM] | MIC (Staphylococcus aureus MR) [µM] | MIC [11] [µM] | MIC (Enterococcus faecium VR) [µM] | MIC [12] [µM] | MIC [13] [µM] | MIC [14] [µM] | MIC (Enterococcus faecalis VR) [µM] | also measured
1 | CC[C@H](C)[C@H](NC(=O)[C@H](C)N)C(=O)N[C@@H](CCCN=C(N)N)C(=O)N[C@@H](CS)C(=O)N[C@@H](CC(C)C)C(=O)N[C@@H](C)C(=O)N[C@@H](CCCCN)C(=O)N[C@@H](CCCN=C(N)N)C(=O)N[C@@H](CCCN=C(N)N)C(=O)N[C@@H](CCCCN)C(N)=O [AIRCLAKRRK] |  |  |  |  |  |  |  |  |  |  |  |  |  | 7.5 (≈ 9.1 µg/mL) | 7.5 (≈ 9.1 µg/mL) | 15 (≈ 18.2 µg/mL) | 7.5 (≈ 9.1 µg/mL) | 7.5 (≈ 9.1 µg/mL) | 7.5 (≈ 9.1 µg/mL) | 30 (≈ 36.4 µg/mL) | MIC (Enterococcus faecalis): 30 µM (≈ 36.4 µg/mL); MIC (Enterococcus faecium): 3.8 µM (≈ 4.61 µg/mL); MIC [15]: 7.5 µM (≈ 9.1 µg/mL); MIC [16]: 30 µM (≈ 36.4 µg/mL)
2 | CC[C@H](C)[C@H](NC(=O)[C@H](CCCN=C(N)N)NC(=O)[C@H](CCCCN)NC(=O)[C@@H](NC(=O)[C@H](Cc1c[nH]c2ccccc12)NC(=O)[C@H](Cc1c[nH]c2ccccc12)NC(=O)[C@H](Cc1c[nH]c2ccccc12)NC(=O)[C@H](CCCN=C(N)N)NC(=O)[C@@H](N)CC(C)C)[C@@H](C)CC)C(=O)O [LRWWWIKRI] |  |  |  |  |  |  |  |  |  |  |  |  |  |  |  |  |  |  |  |  | MIC [17]: 3.39 µM (≈ 4.6 µg/mL); MIC (Pseudomonas aeruginosa 9): 27.3 µM (≈ 37 µg/mL); MIC [18]: 1.77 µM (≈ 2.4 µg/mL); MIC [19]: 3.39 µM (≈ 4.6 µg/mL); MIC [20]: ≥ 109 µM; MIC [21]: 7.08 µM (≈ 9.6 µg/mL); MIC [22]: 27.3 µM (≈ 37 µg/mL); MIC [23]: 13.3 µM (≈ 18 µg/mL); MIC [24]: 27.3 µM (≈ 37 µg/mL); MIC [25]: 0.811 µM (≈ 1.1 µg/mL); MIC [26]: 13.3 µM (≈ 18 µg/mL); MIC [27]: 13.3 µM (≈ 18 µg/mL); MIC [28]: 3.39 µM (≈ 4.6 µg/mL); MIC [29]: 7.08 µM (≈ 9.6 µg/mL); MIC [30]: 7.08 µM (≈ 9.6 µg/mL); MIC [31]: 27.3 µM (≈ 37 µg/mL); MIC [32]: 13.3 µM (≈ 18 µg/mL); MIC [33]: 27.3 µM (≈ 37 µg/mL); MIC [34]: 13.3 µM (≈ 18 µg/mL); MIC [35]: 3.39 µM (≈ 4.6 µg/mL)
3 | CC[C@H](C)[C@H](NC(=O)[C@H](CS)NC(=O)[C@H](CC(N)=O)NC(=O)[C@H](C)NC(=O)[C@H](C)N)C(=O)N[C@H](C(=O)N[C@@H](CC(C)C)C(=O)NCC(=O)N[C@@H](CCCCN)C(=O)N[C@@H](C)C(N)=O)[C@@H](C)O [AANCITLGKA] |  |  |  |  |  |  |  |  |  |  |  |  |  | 30 (≈ 28.8 µg/mL) | 30 (≈ 28.8 µg/mL) | 30 (≈ 28.8 µg/mL) | 30 (≈ 28.8 µg/mL) | 30 (≈ 28.8 µg/mL) | 30 (≈ 28.8 µg/mL) | 30 (≈ 28.8 µg/mL) | MIC (Enterococcus faecalis): 30 µM (≈ 28.8 µg/mL); MIC (Enterococcus faecium): 30 µM (≈ 28.8 µg/mL); MIC [15]: 30 µM (≈ 28.8 µg/mL); MIC [16]: 30 µM (≈ 28.8 µg/mL)
4 | CC[C@H](C)[C@H](NC(=O)[C@H](CS)NC(=O)[C@H](Cc1cnc[nH]1)NC(=O)[C@H](C)NC(=O)[C@H](C)N)C(=O)N[C@@H](C)C(=O)N[C@@H](CC(C)C)C(=O)N[C@@H](CCCN=C(N)N)C(=O)N[C@@H](CCCCN)C(=O)NCC(=O)N[C@@H](Cc1ccc(O)cc1)C(=O)N[C@@H](CCCCN)C(N)=O [AAHCIALRKGYK] |  |  |  |  |  |  |  |  |  |  |  |  |  | 30 (≈ 39.9 µg/mL) | 30 (≈ 39.9 µg/mL) | 30 (≈ 39.9 µg/mL) | 30 (≈ 39.9 µg/mL) | 30 (≈ 39.9 µg/mL) | 30 (≈ 39.9 µg/mL) | 15 (≈ 19.9 µg/mL) | MIC (Enterococcus faecalis): 30 µM (≈ 39.9 µg/mL); MIC (Enterococcus faecium): 7.5 µM (≈ 9.97 µg/mL); MIC [15]: 30 µM (≈ 39.9 µg/mL); MIC [16]: 30 µM (≈ 39.9 µg/mL)

More lines, main results first:

Row | MIC [1] [µM] | MIC (Pseudomonas aeruginosa) [µM] | MIC [2] [µM] | MIC [3] [µM] | MIC (Acinetobacter baumannii) [µM] | MIC [4] [µM] | MIC [5] [µM] | MIC [6] [µM] | MIC [7] [µM] | MIC [8] [µM] | MIC [9] [µM] | MIC [10] [µM] | MIC (Klebsiella pneumoniae) [µM] | MIC (Staphylococcus aureus MR) [µM] | MIC [11] [µM] | MIC (Enterococcus faecium VR) [µM] | MIC [12] [µM] | MIC [13] [µM] | MIC [14] [µM] | MIC (Enterococcus faecalis VR) [µM] | Structure (SMILES) | also measured
5 | 0.23 (≈ 0.499 µg/mL) | 0.919 (≈ 2 µg/mL) | 0.23 (≈ 0.499 µg/mL) | 0.23 (≈ 0.499 µg/mL) | 0.115 (≈ 0.25 µg/mL) | 0.0276 (≈ 0.06 µg/mL) | 1.84 (≈ 3.99 µg/mL) | 0.0574 (≈ 0.125 µg/mL) | 1.84 (≈ 3.99 µg/mL) | 0.23 (≈ 0.499 µg/mL) | 0.115 (≈ 0.25 µg/mL) | 0.115 (≈ 0.25 µg/mL) | 3.68 (≈ 7.99 µg/mL) |  |  |  |  |  |  |  | CC[C@H](C)[C@@H]1NC(=O)CNC(=O)[C@H](CCCN=C(N)N)NC(=O)[C@H](Cc2ccc(O)cc2)NC(=O)[C@@H]2CSSC[C@H](NC1=O)C(=O)N[C@@H](C)C(=O)N[C@@H](CCCN=C(N)N)C(=O)N[C@@H](CCCN=C(N)N)C(=O)N[C@H](C(=O)N[C@@H](CCCN=C(N)N)C(=O)O)CSSC[C@H](NC(=O)[C@H](Cc1c[nH]c3ccccc13)NC(=O)[C@@H](N)CCCCN)C(=O)N[C@@H](Cc1ccccc1)C(=O)N[C@@H](CCCN=C(N)N)C(=O)N[C@@H](C(C)C)C(=O)N2 [KWCFRVCYRGICARRCR] | 
6 | 0.467 (≈ 1 µg/mL) | > 7.47 | > 7.47 | 7.47 (≈ 16 µg/mL) | 1.87 (≈ 4 µg/mL) | 0.467 (≈ 1 µg/mL) | 7.47 (≈ 16 µg/mL) | 1.87 (≈ 4 µg/mL) | 7.47 (≈ 16 µg/mL) | 7.47 (≈ 16 µg/mL) | 7.47 (≈ 16 µg/mL) | 3.74 (≈ 8 µg/mL) | > 7.47 |  |  |  |  |  |  |  | CC[C@H](C)[C@H](NC(=O)CNC(=O)[C@H](CCCNC(=N)N)NC(=O)[C@H](Cc1ccc(O)cc1)NC(=O)[C@H](C)NC(=O)[C@@H](NC(=O)[C@H](CCCNC(=N)N)NC(=O)[C@H](Cc1ccccc1)NC(=O)[C@H](C)NC(=O)[C@H](Cc1c[nH]c2ccccc12)NC(=O)[C@@H](N)CCCCN)C(C)C)C(=O)N[C@@H](C)C(=O)N[C@@H](Cc1ccc(O)cc1)C(=O)N[C@@H](CCCNC(=N)N)C(=O)N[C@@H](CCCNC(=N)N)C(=O)N[C@@H](C)C(=O)N[C@@H](CCCNC(=N)N)C(N)=O [KWAFRVAYRGIAYRRAR] | 
7 | 0.109 (≈ 0.249 µg/mL) | 0.218 (≈ 0.499 µg/mL) | 0.109 (≈ 0.249 µg/mL) | 0.109 (≈ 0.249 µg/mL) | 0.109 (≈ 0.249 µg/mL) | 0.0544 (≈ 0.125 µg/mL) | 0.435 (≈ 0.998 µg/mL) | 0.0544 (≈ 0.125 µg/mL) | 1.74 (≈ 3.99 µg/mL) | 0.218 (≈ 0.499 µg/mL) | 0.0544 (≈ 0.125 µg/mL) | 0.0544 (≈ 0.125 µg/mL) | 1.74 (≈ 3.99 µg/mL) |  |  |  |  |  |  |  | CC[C@H](C)[C@@H]1NC(=O)CNC(=O)[C@H](CCCN=C(N)N)NC(=O)[C@H](Cc2ccc(O)cc2)NC(=O)[C@@H]2CSSC[C@H](NC1=O)C(=O)N[C@@H](Cc1ccc(O)cc1)C(=O)N[C@@H](CCCN=C(N)N)C(=O)N[C@@H](CCCN=C(N)N)C(=O)N[C@H](C(=O)N[C@@H](CCCN=C(N)N)C(=O)O)CSSC[C@H](NC(=O)[C@H](Cc1c[nH]c3ccccc13)NC(=O)[C@@H](N)CCCN=C(N)N)C(=O)N[C@@H](Cc1ccccc1)C(=O)N[C@@H](CCCN=C(N)N)C(=O)N[C@@H](C(C)C)C(=O)N2 [RWCFRVCYRGICYRRCR] | 
